In brackets after ≈: the same amount, converted by molar mass.
Legend:
Format in all cases: functional
Helicobacter pylori [1] = assay: The compound was evaluated in vitro for the minimum inhibitory concentration against Helicobacter pylori (13001).
Helicobacter pylori [2] = assay: The compound was evaluated in vitro for the minimum inhibitory concentration against Helicobacter pylori (16021).
Helicobacter pylori [3] = assay: The compound was evaluated in vitro for the minimum inhibitory concentration against Helicobacter pylori (9005).
Helicobacter pylori [4] = assay: The compound was evaluated in vitro for the minimum inhibitory concentration against Helicobacter pylori (FP1757).
Mus musculus [5] = assay: The compound was evaluated in vivo for the therapeutic efficacy at 0.1 mg/kg in mouse infection model; 5/8
Mus musculus [6] = assay: The compound was evaluated in vivo for the therapeutic efficacy at 0.32 mg/kg in mouse infection model; 8/8
Mus musculus [7] = assay: The compound was evaluated in vivo for the therapeutic efficacy at 0.1 mg/kg in mouse infection model; 0/8
Mus musculus [8] = assay: The compound was evaluated in vivo for the therapeutic efficacy at 0.32 mg/kg in mouse infection model; 1/8
Mus musculus [9] = assay: The compound was evaluated in vivo for the therapeutic efficacy at 1.0 mg/kg in mouse infection model; 3/8
Mus musculus [10] = assay: The compound was evaluated in vivo for the therapeutic efficacy at 3.2 mg/kg in mouse infection model; 7/8
Mus musculus [11] = assay: The compound was evaluated in vivo for the therapeutic efficacy at 0.32 mg/kg in mouse infection model; 0/8
Mus musculus [12] = assay: The compound was evaluated in vivo for the therapeutic efficacy at 3.2 mg/kg in mouse infection model; 0/8
Mus musculus [13] = assay: The compound was evaluated in vivo for the therapeutic efficacy at 1.0 mg/kg in mouse infection model; 0/8

MIC (Helicobacter pylori [1]) [µg/mL] | MIC (Helicobacter pylori [2]) [µg/mL] | MIC (Helicobacter pylori [3]) [µg/mL] | MIC (Helicobacter pylori [4]) [µg/mL] | Compound | Therapeutic efficacy (Mus musculus [5]) | Therapeutic efficacy (Mus musculus [6]) | Therapeutic efficacy (Mus musculus [7]) | Therapeutic efficacy (Mus musculus [8]) | Therapeutic efficacy (Mus musculus [9]) | Therapeutic efficacy (Mus musculus [10]) | Therapeutic efficacy (Mus musculus [11]) | Therapeutic efficacy (Mus musculus [12]) | Therapeutic efficacy (Mus musculus [13])
0.00078 (≈ 0.00174 µM) | 0.0016 (≈ 0.00357 µM) | 0.00625 (≈ 0.0139 µM) | 0.00156 (≈ 0.00348 µM) | Cc1nnc(SC2=C(C(=O)O)N3C(=O)[C@@H](NC(=O)Cc4ccccc4)[C@H]3SC2)s1 | 5 | 8 |  |  |  |  |  |  | 
0.05 (≈ 0.0668 µM) | 50 (≈ 66.8 µM) | 0.2 (≈ 0.267 µM) | 0.1 (≈ 0.134 µM) | CC[C@H]1OC(=O)[C@H](C)[C@@H](O[C@H]2C[C@@](C)(OC)[C@@H](O)[C@H](C)O2)[C@H](C)[C@@H](O[C@@H]2O[C@H](C)C[C@H](N(C)C)[C@H]2O)[C@](C)(OC)C[C@@H](C)C(=O)[C@H](C)[C@@H](O)[C@]1(C)O [CLARITHROMYCIN] |  |  |  |  |  |  | 0 | 0 | 0

Compound | MIC (Helicobacter pylori [1]) [µg/mL] | MIC (Helicobacter pylori [2]) [µg/mL] | MIC (Helicobacter pylori [3]) [µg/mL] | MIC (Helicobacter pylori [4]) [µg/mL] | Therapeutic efficacy (Mus musculus [5]) | Therapeutic efficacy (Mus musculus [6]) | Therapeutic efficacy (Mus musculus [7]) | Therapeutic efficacy (Mus musculus [8]) | Therapeutic efficacy (Mus musculus [9]) | Therapeutic efficacy (Mus musculus [10]) | Therapeutic efficacy (Mus musculus [11]) | Therapeutic efficacy (Mus musculus [12]) | Therapeutic efficacy (Mus musculus [13])
CC1(C)S[C@@H]2[C@H](NC(=O)[C@H](N)c3ccc(O)cc3)C(=O)N2C1C(=O)O (single isomer, unassigned) [AMOXICILLIN] | 0.025 (≈ 0.0684 µM) | 0.025 (≈ 0.0684 µM) | 0.05 (≈ 0.137 µM) | 0.0125 (≈ 0.0342 µM) |  |  | 0 | 1 | 3 | 7 |  |  | 

Reference: ChEMBL document CHEMBL1132501, “Synthesis and anti-Helicobacter pylori activity of FR182024, a new cephem derivative” (1999)
